In patent publication US8828401B2, “Cytotoxic peptides and antibody drug conjugates thereof” (Pfizer Inc., priority 2011, dated 2014):

How the values were obtained:
37622A1 NSCLC xenografts = assay: 37622A1 NSCLC patient-derived xenografts with anti-Notch ADCs; assay type: in vivo, nude (Nu/Nu) female mice; details: 5 mg/kg Q4dx4
Experimental: (§1) Humanized anti-Notch antibodies, hu28 and hu75, and rat-human chimeric anti-Notch antibodies, ch28 and ch75, were conjugated to various linker-payload combinations and tested in 37622A1 non-small cell lung cancer (NSCLC), HCC2429 lung cancer, MDA-MB-468 breast cancer and N87 gastric cancer xenograft models. For each model described below the first dose was given on Day 0. The tumors were measured at least once a week and their volume was calculated with the formula: tumor volume (mm^3)=0.5×(tumor width^2)(tumor length). The mean tumor volumes (±S.E.M.) for each treatment group were calculated having a maximum of 10 animals and a minimum of 6 animals to be included.
The effects of anti-Notch ADCs were examined in immunodeficient mice on the in vivo growth of human tumor xenografts that were established from fragments of freshly resected 37622A1 NSCLC tumors obtained in accordance with appropriate consent procedures (Asterand). The 37622A1 NSCLC patient-derived xenografts were subcutaneously passaged in vivo as fragments from animal to animal in nude (Nu/Nu) female mice. When the tumors reached a volume of 150 to 300 mm^3, they were staged to ensure uniformity of the tumor size among various treatment groups. The 37622A1 NSCLC model was dosed intraveneously four times every four days (Q4dx4) with PBS vehicle, humanized anti-Notch ADCs, control huNeg-8.8 ADCs and cisplatin at the doses provided in Table 11.

N87 gastric xenografts = N87 gastric xenografts with anti-Notch ADCs; assay type: in vivo, nude (Nu/Nu) female mice; details: Dose 5 mg/kg Q4dx4 iv
Experimental: as §1
Similar in vivo experiments were performed with the N87 gastric cancer cell line as described above. […] When the tumors reached a volume of 250 to 450 mm^3, the tumors were staged to ensure uniformity of the tumor mass among various treatment groups. The N87 gastric model was dosed intraveneously Q4dx4 with PBS vehicle, humanized anti-Notch ADCs, control huNeg-8.8 ADCs and cisplatin at the doses provided in Tables 16 and 17.

HCC2429 (lung cancer) = assay: In vitro cytotoxicity assay with anti-Notch ADCs (MTS); assay type: cell-based; details: average of 2-4 repeats where ± S.E.M. is given
Experimental: (§2) The effects of anti-Notch ADCs were assessed on 1) cell lines endogenously expressing Notch protein: HCC2429 (lung cancer), OVCAR3 (ovarian cancer) and MDA-MB-468 (breast cancer), 2) cell lines engineered to over-express Notch protein: MDA-MB-468/hNotch and U2OS/hNotch, and 3) a negative control cell line (SW900) using an MTS cellular viability indicator (Promega, Madison, Wis.). These cell lines were cultured with increasing concentrations of anti-Notch ADCs comprising humanized anti-Notch antibodies, hu28 and hu75, and rat-human chimeric anti-Notch antibodies, ch28 and ch75, conjugated to various linker-payload combinations of the present invention. As a specificity control for the anti-Notch-ADCs, non-targeted control-ADCs (huNeg8.8-ADCs or ch2H6-ADCs) were also tested on the same cell lines. After four days, viability of each culture was assessed. IC50 values were calculated by logistic non-linear regression and presented as ng Ab/mL. The drug antibody ratio (DAR) is also provided.

[1] = tested on: MDA-MB-468 (breast cancer); assay: as above; assay type: cell-based; details: average of 2-4 repeats where ± S.E.M. is given
Experimental: as §2

MDA-MB-468/hNotch = assay: as above; assay type: cell-based; details: average of 2-4 repeats where ± S.E.M. is given
Experimental: as §2

OVCAR3 (ovarian cancer) = assay: as above; assay type: cell-based; details: average of 2-4 repeats where ± S.E.M. is given
Experimental: as §2

U2OS/hNotch = assay: as above; assay type: cell-based; details: average of 2-4 repeats where ± S.E.M. is given
Experimental: as §2

N.N.[Cl][Pt][Cl] [Cisplatin, reference compound]
tumor volume (mm^3 ± SEM) (37622A1 NSCLC xenografts; DAY 4): 226 ± 15 mm^3 | tumor volume (mm^3 ± SEM) (37622A1 NSCLC xenografts; DAY 7): 280 ± 29 mm^3 | tumor volume (mm^3 ± SEM) (37622A1 NSCLC xenografts; DAY 11): 301 ± 34 mm^3 | tumor volume (mm^3 ± SEM) (37622A1 NSCLC xenografts; DAY 14): 345 ± 47 mm^3 | tumor volume (mm^3 ± SEM) (37622A1 NSCLC xenografts; DAY 18): 309 ± 37 mm^3 | tumor volume (mm^3 ± SEM) (37622A1 NSCLC xenografts; DAY 21): 373 ± 50 mm^3 | tumor volume (mm^3 ± SEM) (37622A1 NSCLC xenografts; DAY 25): 401 ± 58 mm^3 | tumor volume (mm^3 ± SEM) (37622A1 NSCLC xenografts; DAY 28): 446 ± 64 mm^3 | tumor volume (mm^3 ± SEM) (37622A1 NSCLC xenografts; DAY 32): 482 ± 62 mm^3 | tumor volume (mm^3 ± SEM) (37622A1 NSCLC xenografts; DAY 35): 587 ± 80 mm^3 | tumor volume (mm^3 ± SEM) (37622A1 NSCLC xenografts; DAY 39): 591 ± 83 mm^3 | tumor volume (mm^3 ± SEM) (37622A1 NSCLC xenografts; DAY 42): 612 ± 92 mm^3 | tumor volume (mm^3 ± SEM) (37622A1 NSCLC xenografts; DAY 46): 723 ± 119 mm^3 | tumor volume (mm^3 ± SEM) (37622A1 NSCLC xenografts; DAY 49): 853 ± 139 mm^3 | tumor volume (mm^3 ± SEM) (37622A1 NSCLC xenografts; DAY 53): 970 ± 193 mm^3 | tumor volume (mm^3 ± SEM) (37622A1 NSCLC xenografts; DAY 56): 1215 ± 231 mm^3 | tumor volume (mm^3 ± SEM) (37622A1 NSCLC xenografts; DAY 60): 1428 ± 273 mm^3 | tumor volume (mm^3 ± SEM) (37622A1 NSCLC xenografts; DAY −1): 185 ± 11 mm^3 | tumor volume (mm^3 ± SEM) (N87 gastric xenografts; DAY 0): 328 ± 20 mm^3 | tumor volume (mm^3 ± SEM) (N87 gastric xenografts; DAY 4): 414 ± 27 mm^3 | tumor volume (mm^3 ± SEM) (N87 gastric xenografts; DAY 7): 520 ± 26 mm^3 | tumor volume (mm^3 ± SEM) (N87 gastric xenografts; DAY 11): 501 ± 29 mm^3 | tumor volume (mm^3 ± SEM) (N87 gastric xenografts; DAY 14): 637 ± 31 mm^3

B1: ch75-vc0101: rat-human chimeric anti-Notch antibody ch75 conjugated to mcValCitPABC-#54 (conjugate)
VH: QVKLLQSGAALVKPGASVKMSCKASGYAFTDYWVTWVKQSHGKSLEWIGEISPNSGGTNFNEKFKGKATLTVDKSTSTAYMELSRLTSEDSAIYYCTRGEIRYNWFAYWGQGTLVTVSS
VL: DIQMTQSPSSLSASVGDRVTITCKASQNVGNNIAWYQQKPGKAPKLLIYYASNRYTGVPSRFSGSGYGTDFTLTISSLQPEDFATYYCQRLYNSPFTFGGGTKVEIK
IC50 (ng Ab/mL) ± S.E.M. (HCC2429 (lung cancer)): 2112 ± 826.0 ng Ab/mL | IC50 (ng Ab/mL) ± S.E.M. [1]: 4064 ± 1793.9 ng Ab/mL | IC50 (ng Ab/mL) ± S.E.M. (MDA-MB-468/hNotch): 24 ± 4.0 ng Ab/mL

B2: ch75-vc6780 (conjugate)
VH: QVKLLQSGAALVKPGASVKMSCKASGYAFTDYWVTWVKQSHGKSLEWIGEISPNSGGTNFNEKFKGKATLTVDKSTSTAYMELSRLTSEDSAIYYCTRGEIRYNWFAYWGQGTLVTVSS
VL: DIQMTQSPSSLSASVGDRVTITCKASQNVGNNIAWYQQKPGKAPKLLIYYASNRYTGVPSRFSGSGYGTDFTLTISSLQPEDFATYYCQRLYNSPFTFGGGTKVEIK
IC50 (ng Ab/mL) ± S.E.M. (HCC2429 (lung cancer)): 1004 ± 177.0 ng Ab/mL | IC50 (ng Ab/mL) ± S.E.M. [1]: 6873 ± 4230.0 ng Ab/mL | IC50 (ng Ab/mL) ± S.E.M. (MDA-MB-468/hNotch): 21 ± 3.5 ng Ab/mL | IC50 (ng Ab/mL) ± S.E.M. (OVCAR3 (ovarian cancer)): 922 ng Ab/mL

B3: ch28-vc0101: rat-human chimeric anti-Notch antibody ch28 conjugated to mcValCitPABC-#54 (conjugate)
VH: EVQLVESGGGLVQPGRSLTLSCVASGFTFRDYGMTWIRQAPGKGLTWVAYISSGSNYIYYAEAVKGRFTISRDNAKNTLYLQMTSLRSEDTALYFCTRRGPFVLDAWGQGASVTVSS
VL: DIQMTQSPSFLSASVGDRVTINCKASQSINRYLHWFQQKLGEAPKLLIYNANGLQTGIPSRFSGSGSGTDFTLTISSLQSEDVATYFCLQHNTWPDTFGAGTKLELK
IC50 (ng Ab/mL) ± S.E.M. (HCC2429 (lung cancer)): 3230 ± 1116.5 ng Ab/mL | IC50 (ng Ab/mL) ± S.E.M. [1]: 5443 ± 2630.9 ng Ab/mL | IC50 (ng Ab/mL) ± S.E.M. (MDA-MB-468/hNotch): 4 ± 0.5 ng Ab/mL | IC50 (ng Ab/mL) ± S.E.M. (OVCAR3 (ovarian cancer)): 635 ng Ab/mL | IC50 (ng Ab/mL) ± S.E.M. (U2OS/hNotch): 95 ± 18.2 ng Ab/mL

B4: ch28-vc6780 (conjugate)
VH: EVQLVESGGGLVQPGRSLTLSCVASGFTFRDYGMTWIRQAPGKGLTWVAYISSGSNYIYYAEAVKGRFTISRDNAKNTLYLQMTSLRSEDTALYFCTRRGPFVLDAWGQGASVTVSS
VL: DIQMTQSPSFLSASVGDRVTINCKASQSINRYLHWFQQKLGEAPKLLIYNANGLQTGIPSRFSGSGSGTDFTLTISSLQSEDVATYFCLQHNTWPDTFGAGTKLELK
IC50 (ng Ab/mL) ± S.E.M. (HCC2429 (lung cancer)): 324 ± 78.9 ng Ab/mL | IC50 (ng Ab/mL) ± S.E.M. [1]: 4407 ± 2128.2 ng Ab/mL | IC50 (ng Ab/mL) ± S.E.M. (MDA-MB-468/hNotch): 3 ± 0.5 ng Ab/mL | IC50 (ng Ab/mL) ± S.E.M. (OVCAR3 (ovarian cancer)): 90 ± 48.5 ng Ab/mL
